Measurements taken from ChEMBL document CHEMBL1129777, “Novel 6-substituted 2-aminotetralins with potent and selective affinity for the dopamine D3 receptor” (Bioorg Med Chem Lett, 1996).

What was measured:
D(3) dopamine receptor = D(3) dopamine receptor (Homo sapiens, UniProt P35462); assay: Binding affinity against human Dopamine receptor D3 in Chinese hamster ovary cells using [3H]spiperone.; type: cell-based
D(2) dopamine receptor = D(2) dopamine receptor (Homo sapiens, UniProt P14416); assay: Binding affinity against human Dopamine receptor D2 in mouse LtK- cells using [3H]spiperone.; type: cell-based
Sequence of D(2) dopamine receptor (P14416 whole entry): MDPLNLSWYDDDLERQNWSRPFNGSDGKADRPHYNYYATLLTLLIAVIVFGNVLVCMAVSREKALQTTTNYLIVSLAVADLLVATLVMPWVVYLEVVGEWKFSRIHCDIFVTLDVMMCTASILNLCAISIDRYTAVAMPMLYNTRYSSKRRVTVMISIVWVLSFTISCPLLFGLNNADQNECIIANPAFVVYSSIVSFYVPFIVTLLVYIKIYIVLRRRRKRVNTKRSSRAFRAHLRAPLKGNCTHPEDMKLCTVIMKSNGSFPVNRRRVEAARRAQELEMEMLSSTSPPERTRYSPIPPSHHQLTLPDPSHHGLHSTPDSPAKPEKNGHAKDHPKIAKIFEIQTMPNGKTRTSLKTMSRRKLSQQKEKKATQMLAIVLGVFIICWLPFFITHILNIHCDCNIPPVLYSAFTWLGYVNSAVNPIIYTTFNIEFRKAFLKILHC

Sequence of D(3) dopamine receptor (P35462 whole entry): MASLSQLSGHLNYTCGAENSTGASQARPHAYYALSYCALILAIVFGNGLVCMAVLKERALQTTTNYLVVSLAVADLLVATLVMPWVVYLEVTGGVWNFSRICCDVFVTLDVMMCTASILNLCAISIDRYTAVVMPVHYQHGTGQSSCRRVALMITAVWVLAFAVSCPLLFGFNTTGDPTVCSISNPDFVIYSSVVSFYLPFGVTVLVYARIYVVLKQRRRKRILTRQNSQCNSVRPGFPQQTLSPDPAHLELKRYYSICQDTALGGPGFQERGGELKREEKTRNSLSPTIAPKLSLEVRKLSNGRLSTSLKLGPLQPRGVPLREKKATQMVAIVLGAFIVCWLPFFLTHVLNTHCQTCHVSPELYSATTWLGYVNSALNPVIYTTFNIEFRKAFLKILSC

SMILES: CCCN(CCC)[C@@H]1CCc2c(ccc(C(O)Cc3ccc(Cl)c(Cl)c3)c2OC)C1 (stereo not given in full)
- Ki (D(3) dopamine receptor): 20 nM

SMILES: CCCN(CCC)[C@@H]1CCc2cc(CCc3ccc(C(C)=O)cc3)ccc2C1
- Ki (D(3) dopamine receptor): 3.16 nM
- Ki (D(2) dopamine receptor): 794 nM

SMILES: CCCN(CCC)C1CCc2cc(CCc3ccc(C(N)=O)cc3)ccc2C1 (stereo not given)
- Ki (D(3) dopamine receptor): 631 nM

SMILES: CCCN(CCC)[C@H]1CCc2cc(CCc3ccc(Cl)cc3)ccc2C1
- Ki (D(3) dopamine receptor): 10 nM
- Ki (D(2) dopamine receptor): 126 nM

SMILES: CCCN(CCC)[C@@H]1CCc2c(ccc(C(O)Cc3ccccc3)c2OC)C1 (stereo not given in full)
- Ki (D(3) dopamine receptor): 63.1 nM
- Ki (D(2) dopamine receptor): 1000 nM

SMILES: CCCN(CCC)[C@@H]1CCc2c(OC)cccc2[C@@H]1C
- Ki (D(3) dopamine receptor): 12.6 nM
- Ki (D(2) dopamine receptor): 63.1 nM

SMILES: CCCN(CCC)C1CCc2cc(CCc3ccc(O)cc3)ccc2C1 (stereo not given)
- Ki (D(3) dopamine receptor): 12.6 nM
- Ki (D(2) dopamine receptor): 316 nM

SMILES: CCCN(CCC)[C@@H]1CCc2c(ccc(CCc3ccc(NS(C)(=O)=O)cc3)c2OC)C1
- Ki (D(3) dopamine receptor): 501 nM

SMILES: CCCN(CCC)[C@@H]1CCc2c(ccc(CCc3ccc(Cl)cc3)c2OC)C1
- Ki (D(3) dopamine receptor): 5.01 nM
- Ki (D(2) dopamine receptor): 126 nM

SMILES: CCCN(CCC)[C@@H]1CCc2c(ccc(C(O)Cc3ccc(OC)cc3)c2OC)C1 (stereo not given in full)
- Ki (D(3) dopamine receptor): 50.1 nM

SMILES: CCCN(CCC)[C@@H]1CCc2cc(CCc3ccc(Cl)cc3)ccc2C1
- Ki (D(3) dopamine receptor): 3.98 nM
- Ki (D(2) dopamine receptor): 398 nM

SMILES: CCCN(CCC)[C@@H]1CCc2c(ccc(C(O)Cc3ccc(Cl)cc3)c2OC)[C@@H]1C (stereo not given in full)
- Ki (D(3) dopamine receptor): 25.1 nM
- Ki (D(2) dopamine receptor): 631 nM

SMILES: CCCN(CCC)[C@@H]1CCc2c(ccc(CCc3ccc(C(F)(F)F)cc3)c2OC)C1
- Ki (D(3) dopamine receptor): 6.31 nM
- Ki (D(2) dopamine receptor): 100 nM

SMILES: CCCN(CCC)C1CCc2cc(CCc3ccc(C(=O)O)cc3)ccc2C1 (stereo not given)
- Ki (D(3) dopamine receptor): 3160 nM

SMILES: CCCN(CCC)[C@@H]1CCc2c(ccc(C(O)Cc3ccc(Cl)cc3)c2OC)C1 (single isomer, unassigned; isomer I)
- Ki (D(3) dopamine receptor): 6.31 nM
- Ki (D(2) dopamine receptor): 316 nM

SMILES: CCCN(CCC)C1CCc2cc(CCc3ccc(C(C)=O)cc3)ccc2C1 (stereo not given)
- Ki (D(3) dopamine receptor): 3.98 nM
- Ki (D(2) dopamine receptor): 1000 nM

SMILES: CCCN(CCC)C1CCc2cc(CS(=O)(=O)c3ccc(OC)cc3)ccc2C1 (stereo not given)
- Ki (D(3) dopamine receptor): 1.58 nM
- Ki (D(2) dopamine receptor): 631 nM

SMILES: CCCN(CCC)[C@@H]1CCc2cc(CCc3ccc(/C(C)=N\O)cc3)ccc2C1
- Ki (D(3) dopamine receptor): 1 nM
- Ki (D(2) dopamine receptor): 316 nM

SMILES: CCCN(CCC)C1CCc2cc(CN(C(=O)OC)c3ccc(OC)cc3)ccc2C1 (stereo not given)
- Ki (D(3) dopamine receptor): 6.31 nM
- Ki (D(2) dopamine receptor): 794 nM

SMILES: CCCN(CCC)C1CCc2cc(CCc3ccccc3)ccc2C1 (stereo not given)
- Ki (D(3) dopamine receptor): 3.98 nM
- Ki (D(2) dopamine receptor): 398 nM

SMILES: CCCN(CCC)[C@@H]1CCc2c(ccc(C(O)Cc3ccc(Cl)cc3)c2OC)C1 (stereo in doubt)
- Ki (D(3) dopamine receptor): 50.1 nM
- Ki (D(2) dopamine receptor): 1260 nM

SMILES: CCCN(CCC)C1CCc2cc(CN(C(C)=O)c3ccc(OC)cc3)ccc2C1 (stereo not given)
- Ki (D(3) dopamine receptor): 7.94 nM
- Ki (D(2) dopamine receptor): 631 nM

SMILES: CCCN(CCC)C1CCc2cc(CSc3ccc(OC)cc3)ccc2C1 (stereo not given)
- Ki (D(3) dopamine receptor): 1.26 nM
- Ki (D(2) dopamine receptor): 200 nM

SMILES: CCCN(CCC)[C@@H]1CCc2cc(CS(=O)(=O)c3ccc(I)cc3)ccc2C1
- Ki (D(3) dopamine receptor): 0.158 nM
- Ki (D(2) dopamine receptor): 200 nM

SMILES: CCCN(CCC)[C@@H]1CCc2c(ccc(CCc3ccccc3)c2OC)C1
- Ki (D(3) dopamine receptor): 20 nM

SMILES: CCCN(CCC)C1CCc2cc(CCc3ccc(C(=O)OCC)cc3)ccc2C1 (stereo not given)
- Ki (D(3) dopamine receptor): 2 nM
- Ki (D(2) dopamine receptor): 251 nM

SMILES: CCCN(CCC)C1CCc2cc(CCc3ccc(OC)cc3)ccc2C1 (stereo not given)
- Ki (D(3) dopamine receptor): 3.16 nM
- Ki (D(2) dopamine receptor): 251 nM

SMILES: CCCN(CCC)C1CCc2cc(CN(C(N)=O)c3ccc(OC)cc3)ccc2C1 (stereo not given)
- Ki (D(3) dopamine receptor): 25.1 nM
- Ki (D(2) dopamine receptor): 6310 nM

SMILES: CCCN(CCC)C1CCc2cc(CCc3ccc(S(C)(=O)=O)cc3)ccc2C1 (stereo not given)
- Ki (D(3) dopamine receptor): 1580 nM

SMILES: CCCN(CCC)C1CCc2cc(CCc3ccc(/C(C)=N\O)cc3)ccc2C1 (stereo not given)
- Ki (D(3) dopamine receptor): 2 nM
- Ki (D(2) dopamine receptor): 794 nM

SMILES: CCCN(CCC)[C@@H]1CCc2cc(CS(=O)(=O)c3ccc(OC)cc3)ccc2C1
- Ki (D(3) dopamine receptor): 1.26 nM
- Ki (D(2) dopamine receptor): 501 nM
